Measurements as given in patent US20140120595A1 (priority 2008, published 2014).
Converted amounts (≈) assume the structure as drawn.

System: E. coli K12
Assay: microbe, parasite or virus in culture
Conditions: Escherichia coli, K12, 24 h, read-out: minimum inhibitory concentration (MIC)
Procedure: Overnight cultures of E. coli K12 were started in 5 mL LB containing no antibiotic 12-16 hours before the experiment was performed. LB broth was inoculated using aseptic technique. The culture was incubated overnight in a shaking incubator at 37 C.
The next morning 10 mL of M9 was inoculated with 100 μL of cells from the overnight culture. The tube was inverted to mix the cells prior to incubation at 37 C in the shaking incubator. While the cells were growing 96 well plates were prepared for inoculation.
A solution of concentrated M9 was made by combining 4 mL of 5×M9 salts, 40 μL of 20% glucose, 40 μL 1M MgSO4, and 2 μL of 1M CaCl2.
The plate was loaded as follows: 45 μL of concentrated M9 mixture was added to each well containing the compound concentrations and the following dilutions were performed:
Controls were prepared and loaded onto the plate as follows: 135 μL of H2O was added to positive control wells. 45 μL of the concentrated M9 mixture was added to each positive control well. 200 μL of water was added to each negative control well.
The OD600 of the cells from the overnight culture that was inoculated into M9 was checked using the spectrophotometer. The final OD600 of the cells was between 0.195 and 0.200. To achieve a final OD within this range the spectrophotometer was blanked with water. […]

## OCCCCO [1,4-BDO, 1,4-butanediol]
  MIC: 50 mg/mL (≈ 555 mM)
